Columns and labels:
MT1-MMP [1] = target: T1, MT1-MMP (Homo sapiens, UniProt P50281); test: fluorescence polarisation competition experiments (affinity to MT1-MMP); format: binding; settings: tris-sulfone version, Figure 2
Protocol: Subsequently, the affinity to the MT1-MMP target was measured by fluorescence polarisation competition experiments for 17-69-07-N241, and its sulfone versions (Figure 2).

MT1-MMP [2] = target: T1, MT1-MMP; test: selectivity / cross-reactivity against other MMPs; format: binding; settings: does not cross-react with MMP-1, MMP-2, MMP-15 and MMP-16

Row | Kd (MT1-MMP [1]) [nM] | selectivity for MT1-MMP (MT1-MMP [2]) | Compound
1 | ~10 | – | C[C@H](NC(=O)CN(C)C(=O)CN(C)C(=O)CN(C)C(=O)CN(C)C(=O)CN(C)C(=O)CN(C)C(=O)CN(C)C(=O)CN(C)C(=O)CN(C)C(=O)CN(C)C(=O)CCN)C(=O)N[C@H]1CS(=O)(=O)Cc2cc3cc(c2)CS(=O)(=O)C[C@H](NC(=O)[C@@H](C)NC(=O)[C@H](Cc2cccc4ccccc24)NC(=O)[C@H](CCC(=O)O)NC(=O)[C@H](CC(N)=O)NC(=O)[C@@H](C)NC1=O)C(=O)N[C@@H](CCC(=O)O)C(=O)N[C@@H](CC(=O)O)C(=O)N[C@@H](Cc1ccccc1)C(=O)N[C@@H](Cc1ccc(O)cc1)C(=O)N[C@@H](CC(=O)O)C(=O)N[C@@H](C(C)(C)C)C(=O)N[C@H](C(N)=O)CS(=O)(=O)C3 [17-69-07-N338]
2 | – | uniquely selective for MT1-MMP | -Ci-Y-N-E-F-G-Cii-E-D-F-Y-D-I-Ciii- [17-69-07]

Reference: patent EP3192802A1, “STABILIZED PEPTIDE DERIVATIVES” (Bicycle Therapeutics Limited, priority 2016, dated 2017)
